# Laboratory results from BindingDB's records for PubMed 9454827 (Sibia Neurosciences, 1998).
# What was measured:
# [1] = target: Neuronal acetylcholine receptor subunit alpha-4 (Homo sapiens, UniProt P43681)
# [2] = target: Neuronal acetylcholine receptor subunit alpha-3 (Homo sapiens, UniProt P32297)
# [3] = target: Neuronal acetylcholine receptor subunit alpha-2 (Homo sapiens, UniProt Q15822)
# Chain of Neuronal acetylcholine receptor subunit alpha-2 (Q15822 whole entry): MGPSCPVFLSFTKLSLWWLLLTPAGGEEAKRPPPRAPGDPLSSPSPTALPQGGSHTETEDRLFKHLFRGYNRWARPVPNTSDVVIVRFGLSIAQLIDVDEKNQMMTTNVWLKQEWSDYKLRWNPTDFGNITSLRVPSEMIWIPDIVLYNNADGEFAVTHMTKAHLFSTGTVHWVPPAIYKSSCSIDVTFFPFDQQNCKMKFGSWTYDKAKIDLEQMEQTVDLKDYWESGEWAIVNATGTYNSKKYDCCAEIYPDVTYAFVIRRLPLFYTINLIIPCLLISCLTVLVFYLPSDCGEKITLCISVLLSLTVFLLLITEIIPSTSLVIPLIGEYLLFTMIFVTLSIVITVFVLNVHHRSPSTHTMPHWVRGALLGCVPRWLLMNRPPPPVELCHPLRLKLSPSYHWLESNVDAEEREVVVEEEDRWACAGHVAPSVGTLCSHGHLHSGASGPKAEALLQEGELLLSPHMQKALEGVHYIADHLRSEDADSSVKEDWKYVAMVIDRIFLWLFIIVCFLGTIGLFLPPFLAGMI
# Chain of Neuronal acetylcholine receptor subunit alpha-4 (P43681 whole entry): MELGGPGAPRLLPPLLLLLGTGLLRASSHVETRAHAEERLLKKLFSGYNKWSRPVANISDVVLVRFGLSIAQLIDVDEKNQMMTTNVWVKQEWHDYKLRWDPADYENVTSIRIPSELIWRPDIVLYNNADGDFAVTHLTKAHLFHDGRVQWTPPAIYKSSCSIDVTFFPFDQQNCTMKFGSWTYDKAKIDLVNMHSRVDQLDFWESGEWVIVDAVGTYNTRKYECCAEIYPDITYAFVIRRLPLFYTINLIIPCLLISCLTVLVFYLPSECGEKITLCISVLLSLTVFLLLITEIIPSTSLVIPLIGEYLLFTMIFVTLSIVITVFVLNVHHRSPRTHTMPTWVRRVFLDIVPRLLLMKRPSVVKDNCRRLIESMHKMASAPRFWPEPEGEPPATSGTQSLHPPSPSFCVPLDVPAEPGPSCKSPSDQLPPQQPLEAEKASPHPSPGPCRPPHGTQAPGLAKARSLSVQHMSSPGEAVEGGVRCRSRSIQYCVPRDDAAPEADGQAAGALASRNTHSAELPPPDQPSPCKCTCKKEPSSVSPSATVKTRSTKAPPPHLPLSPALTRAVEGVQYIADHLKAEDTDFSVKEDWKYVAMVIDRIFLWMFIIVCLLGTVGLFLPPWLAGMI
# Chain of Neuronal acetylcholine receptor subunit alpha-3 (P32297 whole entry): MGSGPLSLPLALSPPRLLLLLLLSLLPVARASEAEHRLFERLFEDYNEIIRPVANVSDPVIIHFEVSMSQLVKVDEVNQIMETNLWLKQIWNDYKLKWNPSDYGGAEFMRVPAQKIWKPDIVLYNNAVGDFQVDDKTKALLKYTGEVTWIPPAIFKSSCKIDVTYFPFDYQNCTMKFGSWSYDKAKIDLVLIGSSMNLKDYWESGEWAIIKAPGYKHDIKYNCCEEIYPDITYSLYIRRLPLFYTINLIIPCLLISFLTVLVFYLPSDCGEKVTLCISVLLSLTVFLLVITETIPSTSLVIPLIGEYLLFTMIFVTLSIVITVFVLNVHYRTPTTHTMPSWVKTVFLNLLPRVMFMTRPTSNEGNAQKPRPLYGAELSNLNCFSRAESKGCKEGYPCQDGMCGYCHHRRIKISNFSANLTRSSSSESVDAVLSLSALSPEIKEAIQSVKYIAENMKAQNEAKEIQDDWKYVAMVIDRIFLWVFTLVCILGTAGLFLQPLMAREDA
SMILES,Ki [1],Ki [2],Ki [3]
"O=c1cccc2n1C[C@H]1CNC[C@H]2C1 [(1S,9R)-7,11-diazatricyclo[7.3.1.0~2,7~]trideca-2,4-dien-6-one]",0.515 µM,> 10 µM,
C[N+]1(C)CCN(c2ccccc2)CC1 [DMPP],> 10 µM,> 10 µM,> 10 µM
COc1cc2c3cc1Oc1cc(ccc1O)C[C@H]1c4c(cc(OC)c(O)c4Oc4ccc(cc4)C[C@@H]3N(C)CC2)CC[N+]1(C)C [CAS_57-94-3],0.86 µM,0.73 µM,2.26 µM
"CNC1(C)C2CCC(C2)C1(C)C (stereo not given) [Methyl-(2,3,3-trimethyl-bicyclo[2.2.1]hept-2-yl)-amine(Mecamylamine)]",0.56 µM,,3.06 µM
CO[C@@H]1CC=C2CCN3CCC4=C(CC(=O)OC4)[C@@]23C1,,,5.09 µM
C[N+](C)(C)CCOC(=O)CCCCCCC(=O)OCC[N+](C)(C)C [NSC_123990],1.12 µM,> 10 µM,8.75 µM
"CN1CCC[C@H]1c1cccnc1 [(R,S)-nicotine]",,,9.9 µM
